# Article PMC9178789
# How the values were obtained:
# [1] = Thioether stapling in folded myoglobin: Cys thiol SN2 on the chloroacetamide of genetically encoded p-chloroacetamido-Phe (pCaaF), loss of HCl; spontaneous during E. coli expression (27 °C overnight) and purification, then overnight incubation at pH ~8.5; settings: the molecule shown is the open-chain precursor, aqueous (E. coli cytosol, then KPi buffer adjusted to pH ~8.5), other, scale: % stapled
# [2] = Thioether stapling in folded myoglobin: Cys thiol SN2 on the bromoethyl ether of genetically encoded O-2-bromoethyl tyrosine (O2beY), loss of HBr; settings: the molecule shown is the open-chain precursor, aqueous (E. coli expression), other, scale: 1 = efficient/successful stapling, 0.5 = partial, 0 = failed, cited from earlier work
substance,measurement,setting,value
"sperm whale Mb(H64V,V68A) + D27pCaaF, H113C, V114G","ring closure, conversion by HPLC",[1]; 269-membered ring,100
"sperm whale Mb(H64V,V68A) + H36pCaaF, E109C","ring closure, conversion by HPLC",[1]; 230-membered ring,78
"sperm whale Mb(H64V,V68A) + G5pCaaF, H36pCaaF, E109C, H113E, D126C","ring closure, conversion by HPLC",[1],100
"sperm whale Mb(H64V,V68A) + D20S, G23C, D27A, R118pCaaF","ring closure, conversion by HPLC",[1]; 296-membered ring,100
"sperm whale Mb(H64V,V68A) + H36O2beY, E109C","ring closure, product found",[2]; 230-membered ring,1
"sperm whale Mb(H64V,V68A) + K16C, H119A, G121pCaaF, D122S","ring closure, conversion by HPLC",[1]; 326-membered ring,60
"sperm whale Mb(H64V,V68A) + G5pCaaF, H36pCaaF, E109C, D126C","ring closure, conversion by HPLC",[1],100
"sperm whale Mb(H64V,V68A) + G5pCaaF, D126C","ring closure, conversion by HPLC",[1]; 374-membered ring,100
"sperm whale Mb(H64V,V68A) + L9R, H12C, D122T, A127O2beY","ring closure, product found",[2]; 356-membered ring,1
"sperm whale Mb(H64V,V68A) + L9R, H12C, D122T, A127pCaaF","ring closure, conversion by HPLC",[1]; 356-membered ring,100
"sperm whale Mb(H64V,V68A) + R31pCaaF, S35K, E109C","ring closure, conversion by HPLC",[1]; 245-membered ring,100
"sperm whale Mb(H64V,V68A) + R31O2beY, S35K, E109C","ring closure, product found",[2]; 245-membered ring,0
"sperm whale Mb(H64V,V68A) + G5O2beY, D126C","ring closure, product found",[2]; 374-membered ring,1
"sperm whale Mb(H64V,V68A) + K16C, H119A, G121O2beY, D122S","ring closure, product found",[2]; 326-membered ring,0
